Test results reported in article PMC3199867, “Targeting surface nucleolin with multivalent HB-19 and related Nucant pseudopeptides results in distinct inhibitory mechanisms depending on the malignant tumor cell type” (BMC Cancer, 2011).

Experiments:
surface nucleolin = experiment: HIV-1 LAI entry into HeLa-CD4-LTR-LacZ cells (β-galactosidase): function of surface nucleolin; assay type: cell-based, human; conditions: 0.05-0.8 μM, β-galactosidase at 48 h post-infection
Text: Surface nucleolin serves as a low affinity receptor implicated in the binding and entry of HIV-1 particles into permissive cells. Consequently, HB-19 treatment of cells prevents HIV binding to cells and thus HIV entry and infection. Here HIV-1 LAI entry was monitored in HeLa-CD4-LTR-LacZ cells containing the bacterial lacZ gene under the control of HIV-1 LTR. Virus entry and replication result in trans-activation of HIV-1 LTR by the viral Tat protein, leading to the expression of β-galactosidase. At 48 h post-infection, cell monolayers are lysed in a phosphate buffer containing Nonidet P-40 (Sigma) (1%; v ⁄ v) and assayed for β-galactosidase activity by measuring optical density at 570 nm.
Figure 2 HB-19 and related Nucant pseudopeptides antagonize surface nucleolin and trigger its down regulation. A. Multivalent pseudopeptides block the biological function of surface nucleolin for HIV entry. […] At 48 h post-infection, the β-galactosidase activity was measured in cell extracts directly to monitor HIV entry (Methods). The abscissa gives % Activity of surface nucleolin calculated from the optical density measurements at 570 nm. […] Cytoplasmic (containing cytoplasmic as well as surface nucleolin) and nuclear extracts were analyzed by immunoblotting using mAb D3 as described (Methods)(panels Surface/cytoplasmic NCL, Nuclear NCL). […]

T29 = experiment: Cell death (trypan blue uptake); assay type: cell-based, murine; conditions: for % Cell death After 24 hours: T29, freshly passaged, N6 or N7 20 μM, mean of at least 2 independent experiments; for IC50: T29 cells, 0-20 μM, read-out: Cell death: IC50 24 hours post-passage
Description: (§1) Human breast (MDA-MB-231, MDA-MB-435 [37]), prostate (LNCaP, from American Type Culture Collection, ATCC, Rockville, MD), and cervical (HeLa) epithelial cancer cells were grown in DMEM-glutamax medium (Gibco Invitrogen, Cergy-Pontoise, France) containing GlutaMAX™, 4.5 g/l glucose and supplemented with 10% heat-inactivated (56°C for 30 min) fetal bovine serum (FBS; Hyclone, Thermo Fisher Scientific, Inc). Human SW480 cells are derived from a grade 3-4 colon carcinoma, while the highly metastatic counterpart SW620 is established from the lymph node of a person. Both SW480 and SW620 cells (obtained from Francis Raul, IRCAD) are highly tumorigenic in nude mice. They were cultured in D-MEM, 10% FCS. The murine melanoma TIII cell line was obtained from Armelle Prévost-Blondel. Murine T29 lymphoma cells, obtained from Philippe Kastner (CNRS, Strasbourg), have been established from Ik^L/L tumors from mice carrying a hypomorphic mutation (Ik^L/L) in the Ikaros gene encoding a transcription factor that regulates lymphocyte differentiation, and acts also as a tumor suppressor in T lymphocytes. The T29 cells were cultured in RPMI medium containing 25 mM Hepes pH 7.6, 1 mM sodium pyruvate, and 10% FCS. Human leukemia cell lines, Jurkat (acute T cell leukemia), HuT 78 (cutaneous T lymphocyte), RAJI (Burkitt lymphoma), and HL60 (promyelocytic leukemia) were cultured in RPMI-1640 medium (Gibco) containing GlutaMAX™, and supplemented with 10% heat-inactivated FBS as described before. The wild-type Chinese hamster ovary cell line (CHO K1) was purchased from American Type Culture Collection (ATCC; Rockville, MD). The CHO LRP1-null cell line (CHO-13-5-1) was kindly provided by D. Strickland [47]. They were cultured in Ham's F12K medium. All cells were cultured with 10% (v/v) heat inactivated (56°C, 30 min) fetal bovine serum (FBS) (Roche Molecular Biochemicals, Indianapolis, IN) and 50 international units/mL penicillin-streptomycin (Invitrogen). Cell death was monitored conveniently by uptake of the trypan blue dye due to plasma membrane permeability of dying and/or dead cells.

TIII [1] = experiment: Cell death (trypan blue uptake); assay type: cell-based, murine; conditions: subconfluent, N6 or N7 20 μM, mean of at least 2 independent experiments
Description: as §1

HeLa = experiment: Cell death (trypan blue uptake); assay type: cell-based, human; conditions: subconfluent, N6 or N7 20 μM, mean of at least 2 independent experiments
Description: as §1

MDA-MB 231 = experiment: Cell death (trypan blue uptake); assay type: cell-based, human; conditions: MDA-MB 231, subconfluent, N6 or N7 20 μM, mean of at least 2 independent experiments
Description: as §1

HL60 = experiment: Cell death (trypan blue uptake); assay type: cell-based, human; conditions: HL60, freshly passaged, N6 or N7 20 μM, mean of at least 2 independent experiments
Description: as §1

LNCaP = experiment: Cell death (trypan blue uptake); assay type: cell-based, human; conditions: subconfluent, N6 or N7 20 μM, mean of at least 2 independent experiments
Description: as §1

RAJI = experiment: Cell death (trypan blue uptake); assay type: cell-based, human; conditions: freshly passaged, N6 or N7 20 μM, mean of at least 2 independent experiments
Description: as §1

Jurkat = experiment: Cell death (trypan blue uptake); assay type: cell-based, human; conditions: freshly passaged, N6 or N7 20 μM, mean of at least 2 independent experiments
Description: as §1

MDA-MB 435 = experiment: Cell death (trypan blue uptake); assay type: cell-based, human; conditions: MDA-MB 435, subconfluent, N6 or N7 20 μM, mean of at least 2 independent experiments
Description: as §1

SW480 = experiment: Cell death (trypan blue uptake); assay type: cell-based, human; conditions: SW480, subconfluent, N6 or N7 20 μM, mean of at least 2 independent experiments
Description: as §1

TIII [2] = experiment: Cell growth / proliferation (viable cell number); assay type: cell-based, murine; conditions: mean of at least 2 independent experiments; for % Growth inhibition After 3 days: N6 or N7 20 μM, viable cell number vs untreated control; for % Inhibition of cell Proliferation: after 3 days of culture, vs untreated control
Description: as §1

Row | Substance | inhibitory activity on HIV-1 entry, fold more active compared to the pentavalent constructs N3 and HB-19 (surface nucleolin) | % Cell death After 24 hours (T29) [%] | IC50 (T29) [µM] | % Cell death After 24 hours (TIII [1]) [%] | % Cell death After 24 hours (HeLa) [%] | % Cell death After 24 hours (MDA-MB 231) [%] | % Cell death After 24 hours (HL60) [%] | % Cell death After 24 hours (LNCaP) [%] | % Cell death After 24 hours (RAJI) [%] | % Cell death After 24 hours (Jurkat) [%] | % Cell death After 24 hours (MDA-MB 435) [%] | % Cell death After 24 hours (SW480) [%] | % Growth inhibition After 3 days (TIII [2]) [%] | % Inhibition of cell Proliferation (TIII [2]; 2.5 μM) [%] | % Inhibition of cell Proliferation (TIII [2]; 5 μM) [%] | % Inhibition of cell Proliferation (TIII [2]; 10 μM) [%] | % Inhibition of cell Proliferation (TIII [2]; 20 μM) [%]
1 | Ac-KAKPGKAKPGKAKPG-NH2 [Nucant N7, Presents hexavalently the pseudo-tripeptide Lysψ(CH2N)-Pro-Arg coupled to a similar template as in HB-19] | at least 2 fold | 45 | 20 | < 5 | < 5 | < 5 | 35 | < 5 | 42 | 45 | < 5 | < 5 | 55 | – | – | – | –
2 | Ac-Lys-Aib-Gly-Lys-Aib-Gly-Lys-Aib-Gly-Lys-Aib-Gly-Lys-Aib-Gly-Lys-Aib-Gly-CONH2 [Nucant N6, Presents hexavalently the pseudo-tripeptide Lysψ(CH2N)-Pro-Arg coupled to the polypeptide template containing Aib] | at least 2 fold | 45 | 20 | < 5 | < 5 | < 5 | 35 | < 5 | 42 | 45 | < 5 | < 5 | 55 | 12 | 20 | 32 | 45
